Measured values reported in patent US7342122B2, “Bisphosphonate complexes” (priority 2003, dated 2008).
pIC50: −log10 of the molar value. “Also recorded” adds a separate entry of the source.

Key:
SF-539 = experiment: Cell growth inhibition, brain cancer cell line SF-539; format: cell-based; conditions: SF-539, brain cancer cell line
Experimental: (§1) KB cells were purchased from Human Science Research Resource Bank (Osaka, Japan). The cells were cultured in Earle's MEM (GIBCO BRL) containing 10% FBS (Bio Whittaker) at 37° C. under 5% CO2. After 24 hours the test compounds were added to the cells at the indicated concentrations. 72 hours later the cells were stained with tripan blue and counted manually. IC50 is calculated as the concentration (aqueous solution) of complex required to inhibit growth of cells by 50%.
(§2) In a similar fashion a representative number of examples of compounds of the invention were tested for their ability to inhibit the growth/proliferation of cell types representing a number of different cancers. The results are provided in Tables 4-13, below, which provide the Inhibition Constants (IC50, μM) for each compound across various cell lines.

ACHN = experiment: Cell growth inhibition, renal cancer ACHN; format: cell-based
Experimental: as §1, §2

HBC-5 = experiment: Cell growth inhibition, breast cancer cell line HBC-5; format: cell-based; conditions: HBC-5, breast cancer cell line
Experimental: as §1, §2

MKN74 = experiment: Cell growth inhibition, human stomach cancer MKN74; format: cell-based
Experimental: as §1, §2

HT-29 = experiment: Cell growth inhibition, colon cancer cell line HT-29; format: cell-based; conditions: HT-29, colon cancer cell line
Experimental: as §1, §2

SF-268 = experiment: Cell growth inhibition, brain cancer cell line SF-268; format: cell-based; conditions: SF-268, brain cancer cell line
Experimental: as §1, §2

MDA-MB-231 = experiment: Cell growth inhibition, breast cancer cell line MDA-MB-231; format: cell-based; conditions: MDA-MB-231, breast cancer cell line
Experimental: as §1, §2

OVCAR-4 = experiment: Cell growth inhibition, ovarian cancer cell line OVCAR-4; format: cell-based; conditions: OVCAR-4, ovarian cancer cell line
Experimental: as §1, §2

BSY-1 = experiment: Cell growth inhibition, breast cancer cell line BSY-1; format: cell-based; conditions: BSY-1, breast cancer cell line
Experimental: as §1, §2

SF-295 = experiment: Cell growth inhibition, brain cancer cell line SF-295; format: cell-based; conditions: SF-295, brain cancer cell line
Experimental: as §1, §2

DMS114 = experiment: Cell growth inhibition, lung cancer cell line DMS114; format: cell-based
Experimental: as §1, §2

OVCAR-5 = experiment: Cell growth inhibition, ovarian cancer cell line OVCAR-5; format: cell-based; conditions: OVCAR-5, ovarian cancer cell line
Experimental: as §1, §2

MKN7 = experiment: Cell growth inhibition, human stomach cancer MKN7; format: cell-based
Experimental: as §1, §2

NCI-H23 = experiment: Cell growth inhibition, lung cancer cell line NCI-H23; format: cell-based
Experimental: as §1, §2

NCI-H460 = experiment: Cell growth inhibition, lung cancer cell line NCI-H460; format: cell-based
Experimental: as §1, §2

A549 = experiment: Cell growth inhibition, lung cancer cell line A549; format: cell-based
Experimental: as §1, §2

HBC-4 = experiment: Cell growth inhibition, breast cancer cell line HBC-4; format: cell-based; conditions: HBC-4, breast cancer cell line
Experimental: as §1, §2

[1] = system: all cell types (cancer cell lines of Tables 4-12); experiment: Cell growth inhibition, mean over all cell types of the panel; format: cell-based; conditions: mean over all cell lines of Tables 4-12
Experimental: as §1, §2

SNB-78 = experiment: Cell growth inhibition, brain cancer cell line SNB-78; format: cell-based; conditions: SNB-78, brain cancer cell line
Experimental: as §1, §2

HCC2998 = experiment: Cell growth inhibition, colon cancer cell line HCC2998; format: cell-based
Experimental: as §1, §2

SK-OV-3 = experiment: Cell growth inhibition, ovarian cancer cell line SK-OV-3; format: cell-based; conditions: SK-OV-3, ovarian cancer cell line
Experimental: as §1, §2

MCF-7 = experiment: Cell growth inhibition, breast cancer cell line MCF-7; format: cell-based; conditions: MCF-7, breast cancer cell line
Experimental: as §1, §2

NCI-H226 = experiment: Cell growth inhibition, lung cancer cell line NCI-H226; format: cell-based
Experimental: as §1, §2

MKN28 = experiment: Cell growth inhibition, human stomach cancer MKN28; format: cell-based
Experimental: as §1, §2

KB cells = experiment: In vitro assay, cell growth inhibition (KB cells); format: cell-based; conditions: 72 hours; for pIC50: concentration to inhibit growth of cells by 50%
Experimental: as §1

OVCAR-8 = experiment: Cell growth inhibition, ovarian cancer cell line OVCAR-8; format: cell-based; conditions: OVCAR-8, ovarian cancer cell line
Experimental: as §1, §2

St-4 = experiment: Cell growth inhibition, human stomach cancer St-4; format: cell-based; conditions: St-4, human stomach cancer
Experimental: as §1, §2

RXF-631L = experiment: Cell growth inhibition, renal cancer RXF-631L; format: cell-based
Experimental: as §1, §2

MKN45 = experiment: Cell growth inhibition, human stomach cancer MKN45; format: cell-based
Experimental: as §1, §2

PC-3 = experiment: Cell growth inhibition, prostatic cancer PC-3; format: cell-based; conditions: PC-3, prostatic cancer
Experimental: as §1, §2

DMS273 = experiment: Cell growth inhibition, lung cancer cell line DMS273; format: cell-based
Experimental: as §1, §2

LOX-IMVI = experiment: Cell growth inhibition, melanoma cell line LOX-IMVI; format: cell-based
Experimental: as §1, §2

SNB-75 = experiment: Cell growth inhibition, brain cancer cell line SNB-75; format: cell-based; conditions: SNB-75, brain cancer cell line
Experimental: as §1, §2

KM-12 = experiment: Cell growth inhibition, colon cancer cell line KM-12; format: cell-based; conditions: KM-12, colon cancer cell line
Experimental: as §1, §2

OVCAR-3 = experiment: Cell growth inhibition, ovarian cancer cell line OVCAR-3; format: cell-based; conditions: OVCAR-3, ovarian cancer cell line
Experimental: as §1, §2

U251 = experiment: Cell growth inhibition, brain cancer cell line U251; format: cell-based
Experimental: as §1, §2

DU-145 = experiment: Cell growth inhibition, prostatic cancer DU-145; format: cell-based, human; conditions: DU-145, prostatic cancer
Experimental: as §1, §2

HCT-116 = experiment: Cell growth inhibition, colon cancer cell line HCT-116; format: cell-based; conditions: HCT-116, colon cancer cell line
Experimental: as §1, §2

MKN1 = experiment: Cell growth inhibition, human stomach cancer MKN1; format: cell-based
Experimental: as §1, §2

NCI-H522 = experiment: Cell growth inhibition, lung cancer cell line NCI-H522; format: cell-based
Experimental: as §1, §2

[2] = In vitro assay, adsorption of Pt complexes to hydroxyapatite; format: binding; conditions: for adsorption percentage to hydroxyapatite: 100 mg of hydroxyapatite, HEPES buffer pD=7.8, 1.5 h, 37° C.; for adsorption to hydroxyapatite, comparison in words: FIGS. 1 and 2, 31P NMR, 1H NMR, AAS
Experimental: Each of a 5, 10, 15, 25, 35, and 100 mg sample of hydroxyapatite (Bio-Rad Macro-Prep Ceramic Hydroxyapatite, type I, 40 μm) was added to 2 ml of HEPES buffer at pD=7.8 and the resulting mixture was shaken for about 24 h at 37° C. Then, 100 μl of each complexes dissolved in HEPES buffer at pD=7.8 was added and the mixtures were shaken for 1.5 h at 37° C. All suspensions were filtered, and these solutions were measured by ^31P NMR (Varian VXR-300S) and Atomic Absorption Spectrometry (Hitachi Z-5710 AAS) of platinum or, for carboplatin, by ^1H NMR. Percentage adsorption to hydroxyapatite was calculated as follows. From NMR: Binding percentage/%=[(A−B)/A]×100 From AAS: Binding percentage/%=[(C−D)/C]×100 • A=the integration intensity of Pt(II) complex • B=the integration intensity of Pt(II) complex after reacted with hydroxyapatite • C=the concentration of Pt(II) complex • D=the concentration of Pt(II) complex after reacted with hydroxyapatite

[Cl-].[Cl-].c1cc[n+]2c(c1)-c1cccc[n+]1[Pt-2]21[NH2+]CC[NH+]1Cc1c2ccccc2cc2ccccc12 [Example 4, [Pt(bpy)(Aten)]Cl2]
log10 IC50 (M) (SF-539): -4.82 | log10 IC50 (M) (ACHN): -4.2 | log10 IC50 (M) (HBC-5): -4.12 | log10 IC50 (M) (MKN74): -4.75 | log10 IC50 (M) (HT-29): -4.57 | log10 IC50 (M) (SF-268): -4.83 | log10 IC50 (M) (MDA-MB-231): -4.5 | log10 IC50 (M) (OVCAR-4): -4.19 | log10 IC50 (M) (BSY-1): -4.89 | log10 IC50 (M) (SF-295): -4.9 | log10 IC50 (M) (DMS114): -4.89 | log10 IC50 (M) (OVCAR-5): -4.79 | log10 IC50 (M) (MKN7): -4.45 | log10 IC50 (M) (NCI-H23): -4.18 | log10 IC50 (M) (NCI-H460): -5.23 | log10 IC50 (M) (A549): -4.69 | log10 IC50 (M) (HBC-4): -4.14 | log10 IC50 (M) [1]: -4.54 | log10 IC50 (M) (SNB-78): -4.56 | log10 IC50 (M) (HCC2998): -4.81 | log10 IC50 (M) (SK-OV-3): -4.77 | log10 IC50 (M) (MCF-7): -4.23 | log10 IC50 (M) (NCI-H226): -4.83 | log10 IC50 (M) (MKN28): -4.34 | KB cells remaining/growth in percent (Table 2, untitled) (KB cells; 1 μg/ml): 93.8% | KB cells remaining/growth in percent (Table 2, untitled) (KB cells; 3 μg/mL): 81.4% | KB cells remaining/growth in percent (Table 2, untitled) (KB cells; 10 μg/mL): 75.3% | KB cells remaining/growth in percent (Table 2, untitled) (KB cells; 30 μg/mL): 73.2% | KB cells remaining/growth in percent (Table 2, untitled) (KB cells; 100 μg/mL): 32.5% | pIC50 (KB cells): 4.01 | log10 IC50 (M) (OVCAR-8): -4.37 | log10 IC50 (M) (St-4): -4.74 | log10 IC50 (M) (RXF-631L): -4.89 | log10 IC50 (M) (MKN45): -4.68 | log10 IC50 (M) (PC-3): -4.22 | log10 IC50 (M) (DMS273): -4.85 | log10 IC50 (M) (LOX-IMVI): -4.46 | log10 IC50 (M) (SNB-75): -4.77 | log10 IC50 (M) (KM-12): -4.77 | log10 IC50 (M) (OVCAR-3): -4.13 | log10 IC50 (M) (U251): -4.84 | log10 IC50 (M) (DU-145): -4.33 | log10 IC50 (M) (HCT-116): -4.37

N.N.O.O.O.O.O.O.O.O=P([O-])([O-])OC1C(OP(=O)([O-])[O-])C(OP(=O)([O-])[O-])C(OP(=O)([O-])[O][Pt+])C(OP(=O)([O-])[O-])C1OP(=O)([O-])[O-].[Na+].[Na+].[Na+].[Na+].[Na+].[Na+].[Na+].[Na+].[Na+].[Na+] (stereo not drawn) [Example 9, Pt(NH3)—IP6 Pt(NH3)2.IP6.10Na.7H2O]
log10 IC50 (M) (ACHN): -5.37 | log10 IC50 (M) (HBC-5): -5.16 | log10 IC50 (M) (SF-268): -4.26 | log10 IC50 (M) (MDA-MB-231): -4.06 | log10 IC50 (M) (OVCAR-4): -4.42 | log10 IC50 (M) (BSY-1): -4.71 | log10 IC50 (M) (SF-295): -4.46 | log10 IC50 (M) (DMS114): -4.72 | log10 IC50 (M) (NCI-H23): -4.7 | log10 IC50 (M) (NCI-H460): -4.46 | log10 IC50 (M) (MKN1): -4.42 | log10 IC50 (M) (HBC-4): -4.27 | log10 IC50 (M) [1]: -4.38 | log10 IC50 (M) (SNB-78): -4.29 | log10 IC50 (M) (NCI-H522): -5.69 | log10 IC50 (M) (SK-OV-3): -5.2 | log10 IC50 (M) (MCF-7): -4.19 | log10 IC50 (M) (RXF-631L): -4.37 | log10 IC50 (M) (MKN45): -4.14 | log10 IC50 (M) (PC-3): -4.04 | log10 IC50 (M) (DMS273): -4.29 | log10 IC50 (M) (LOX-IMVI): -4.08 | log10 IC50 (M) (SNB-75): -5.51 | log10 IC50 (M) (OVCAR-3): -4.82 | log10 IC50 (M) (DU-145): -4.66 | log10 IC50 (M) (HCT-116): -4.41

[NH2][Pt]1([NH2])[O]P(=O)(O)CP(=O)(O)[O]1 [Example 1, cis-Pt(NH3)2(MDP)]
adsorption percentage to hydroxyapatite [2]: 69.3% | adsorption to hydroxyapatite, comparison in words [2]: adsorbed quite significantly more than carboplatin

cis-Pt(NH3)2Cl2
KB cells remaining/growth in percent (Table 2, untitled) (KB cells; 1 μg/ml): 17.0% | KB cells remaining/growth in percent (Table 2, untitled) (KB cells; 3 μg/mL): 13.4% | KB cells remaining/growth in percent (Table 1, untitled) (KB cells; 5 μM): 28.20% | KB cells remaining/growth in percent (Table 2, untitled) (KB cells; 10 μg/mL): 3.0% | KB cells remaining/growth in percent (Table 1, untitled) (KB cells; 15 μM): 13.80% | KB cells remaining/growth in percent (Table 2, untitled) (KB cells; 30 μg/mL): 2.2% | KB cells remaining/growth in percent (Table 1, untitled) (KB cells; 50 μM): 6.78% | KB cells remaining/growth in percent (Table 2, untitled) (KB cells; 100 μg/mL): 1.6% | KB cells remaining/growth in percent (Table 1, untitled) (KB cells; 150 μM): 4.34% | KB cells remaining/growth in percent (Table 1, untitled) (KB cells; 500 μM): 3.52% | pIC50 (KB cells): 5.56

O=P1(O)CP(=O)(O)[O][Pt]2([NH][C@@H]3CCCC[C@H]3[NH]2)[O]1 (stereo partly drawn) [Example 2, Pt(dach)(MDP)]
adsorption percentage to hydroxyapatite [2]: 79.6% | adsorption to hydroxyapatite, comparison in words [2]: adsorbed slightly more than cis-Pt(NH3)2(MDP); also recorded: adsorbed quite significantly more than carboplatin
